In patent US12077503B2, “Substituted cyclic amides and their use as herbicides” (FMC CORPORATION, priority 2015, dated 2024):

Columns and labels:
Type in all cases: in vivo
Kochia (Kochia scoparia) [1] = experiment: Test A preemergence
Summary of the method: (§1)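 Preemergence directed soil spray on seeded pots, or postemergence application to plants 2–10 cm, one- to two-leaf. Solvent mixture non-phytotoxic, with surfactant. Scored ~10 d later, visually, 0–100 vs untreated.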

[2] = tested on: barnyardgrass (Echinochloa crus-galli); experiment: Test A preemergence
Summary of the method: as §1

[3] = tested on: giant foxtail (Setaria faberii); experiment: Test A preemergence
Summary of the method: as §1

[4] = tested on: pigweed (Amaranthus retroflexus); experiment: Test A preemergence
[5] = tested on: ragweed (common ragweed, Ambrosia elatior); experiment: Test A preemergence
Summary of the method: as §1

[6] = tested on: ryegrass, Italian (Italian ryegrass, Lolium multiflorum); experiment: Test A preemergence
Summary of the method: as §1

[7] = tested on: Galium (catchweed bedstraw, Galium aparine); experiment: Test A postemergence
Summary of the method: as §1

Kochia (Kochia scoparia) [8] = experiment: Test A postemergence
Summary of the method: as §1

[9] = tested on: barnyardgrass (Echinochloa crus-galli); experiment: Test A postemergence
Summary of the method: as §1

[10] = tested on: blackgrass (Alopecurus myosuroides); experiment: Test A postemergence
Summary of the method: as §1

corn (Zea mays) = experiment: Test A postemergence
Summary of the method: as §1

[11] = tested on: giant foxtail (Setaria faberii); experiment: Test A postemergence
Summary of the method: as §1

[12] = tested on: pigweed (Amaranthus retroflexus); experiment: Test A postemergence
Summary of the method: as §1

[13] = tested on: ragweed (common ragweed, Ambrosia elatior); experiment: Test A postemergence
Summary of the method: as §1

[14] = tested on: ryegrass, Italian (Italian ryegrass, Lolium multiflorum); experiment: Test A postemergence
Summary of the method: as §1

[15] = tested on: wheat (Triticum aestivum); experiment: Test A postemergence
Summary of the method: as §1

[16] = tested on: barnyardgrass (Echinochloa crus-galli); experiment: Test B flooded paddy test; details: 250 g ai/ha, Flood, 0 to 100 scale where 0 is no effect and 100 is complete control
Summary of the method: (§2)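 Plants at 2-leaf stage flooded to 3 cm above soil, with compounds applied directly to paddy water and that depth maintained. Plants kept in greenhouse 13–15 d. Visual rating versus controls on a 0 (no effect) to 100 (complete control) scale.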

[17] = tested on: ducksalad (Heteranthera limosa); experiment: Test B flooded paddy test; details: 250 g ai/ha, Flood, 0 to 100 scale where 0 is no effect and 100 is complete control
Summary of the method: as §2

rice (Oryra sativa) = experiment: Test B flooded paddy test; details: 250 g ai/ha, Flood, 0 to 100 scale where 0 is no effect and 100 is complete control
Summary of the method: as §2

[18] = tested on: sedge, umbrella (small-flower umbrella sedge, Cyperus difformis); experiment: Test B flooded paddy test; details: 250 g ai/ha, Flood, 0 to 100 scale where 0 is no effect and 100 is complete control
Summary of the method: as §2

[19] = 31 g ai/ha, Preemergence, 0 to 100 scale where 0 is no effect and 100 is complete control
[20] = 125 g ai/ha, preemergence, 0 to 100 scale where 0 is no effect and 100 is complete control, approx. 10 d
[21] = 125 g ai/ha, postemergence, visual injury vs untreated controls after approx. 10 d, 0 = no effect, 100 = complete control
[22] = Postemergence, 31 g ai/ha, visual injury after approx. 10 d, 0 to 100 scale, 0 no effect, 100 complete control
[23] = 125 g ai/ha, Preemergence, visual injury after approximately 10 d, 0 to 100 scale where 0 is no effect and 100 is complete control
[24] = Preemergence, 500 g ai/ha, visual injury approx. 10 d
[25] = 125 g ai/ha, postemergence, visual rating after approx. 10 d, 0 to 100 scale (0 no effect, 100 complete control)
[26] = Postemergence, 500 g ai/ha, 0 to 100 scale where 0 is no effect and 100 is complete control

## CN1C[C@@H](c2ccc([N+](=O)[O-])cc2)[C@H](C(=O)Nc2cccc(F)c2F)C1=O [Compound 1165]
Kochia (Kochia scoparia) [1]; [19]
  Kochia plant response rating: 0
Kochia (Kochia scoparia) [1]; [20]
  Kochia plant response rating: 70
[2]; [19]
  Barnyardgrass plant response rating: 70
[2]; [20]
  Barnyardgrass plant response rating: 90
[3]; [19]
  Foxtail, Giant plant response rating: 70
[3]; [20]
  Foxtail, Giant plant response rating: 90
[4]; [19]
  Pigweed plant response rating: 40
[4]; [20]
  Pigweed plant response rating: 50
[5]; [19]
  Ragweed plant response rating: 0
[5]; [20]
  Ragweed plant response rating: 30
[6]; [19]
  Ryegrass, Italian plant response rating: 0
[6]; [20]
  Ryegrass, Italian plant response rating: 0
[7]; [21]
  Galium plant response rating (0 to 100 scale): 60
[7]; [22]
  Plant response rating, Galium: 20
Kochia (Kochia scoparia) [8]; [21]
  Kochia plant response rating (0 to 100 scale): 30
Kochia (Kochia scoparia) [8]; [22]
  Plant response rating, Kochia: 30
[9]; [21]
  Barnyardgrass plant response rating (0 to 100 scale): 80
[9]; [22]
  Plant response rating, Barnyardgrass: 40
[10]; [21]
  Blackgrass plant response rating (0 to 100 scale): 0
[10]; [22]
  Plant response rating, Blackgrass: 0
Corn (Zea mays); [21]
  Corn plant response rating (0 to 100 scale): 30
Corn (Zea mays); [22]
  Plant response rating, Corn: 0
[11]; [21]
  Foxtail, Giant plant response rating (0 to 100 scale): 70
[11]; [22]
  Plant response rating, Foxtail, Giant: 70
[12]; [21]
  Pigweed plant response rating (0 to 100 scale): 30
[12]; [22]
  Plant response rating, Pigweed: 10
[13]; [21]
  Ragweed plant response rating (0 to 100 scale): 0
[13]; [22]
  Plant response rating, Ragweed: 0
[14]; [21]
  Ryegrass, Italian plant response rating (0 to 100 scale): 20
[14]; [22]
  Plant response rating, Ryegrass, Italian: 0
[15]; [21]
  Wheat plant response rating (0 to 100 scale): 30
[15]; [22]
  Plant response rating, Wheat: 0
[16]
  Barnyardgrass plant response rating: 95
[17]
  Ducksalad plant response rating: 90
Rice (Oryra sativa)
  Rice plant response rating: 45
[18]
  Sedge, Umbrella plant response rating: 0

## O=C1NCC(c2ccsc2Br)C1C(=O)Nc1cccc(F)c1F (stereo not drawn) [Compound 598]
Kochia (Kochia scoparia) [1]; [23]
  Plant response rating, Kochia: 0
Kochia (Kochia scoparia) [1]; [24]
  Kochia plant response rating (0 to 100 scale, 0 is no effect, 100 is complete control): 0
[2]; [23]
  Plant response rating, Barnyardgrass: 0
[2]; [24]
  Barnyardgrass plant response rating (0 to 100 scale, 0 is no effect, 100 is complete control): 60
[3]; [23]
  Plant response rating, Foxtail, Giant: 0
[3]; [24]
  Foxtail, Giant plant response rating (0 to 100 scale, 0 is no effect, 100 is complete control): 60
[4]; [23]
  Plant response rating, Pigweed: 0
[4]; [24]
  Pigweed plant response rating (0 to 100 scale, 0 is no effect, 100 is complete control): 0
[5]; [23]
  Plant response rating, Ragweed: 0
[5]; [24]
  Ragweed plant response rating (0 to 100 scale, 0 is no effect, 100 is complete control): 0
[6]; [23]
  Plant response rating, Ryegrass, Italian: 0
[6]; [24]
  Ryegrass, Italian plant response rating (0 to 100 scale, 0 is no effect, 100 is complete control): 20
[7]; [25]
  Plant response rating, Galium: 0
[7]; [26]
  Plant response rating, Galium: 30
Kochia (Kochia scoparia) [8]; [25]
  Plant response rating, Kochia: 0
Kochia (Kochia scoparia) [8]; [26]
  Plant response rating, Kochia: 20
[9]; [25]
  Plant response rating, Barnyardgrass: 10
[9]; [26]
  Plant response rating, Barnyardgrass: 80
[10]; [25]
  Plant response rating, Blackgrass: 0
[10]; [26]
  Plant response rating, Blackgrass: 0
Corn (Zea mays); [25]
  Plant response rating, Corn: 0
Corn (Zea mays); [26]
  Plant response rating, Corn: 0
[11]; [25]
  Plant response rating, Foxtail, Giant: 0
[11]; [26]
  Plant response rating, Foxtail, Giant: 20
[12]; [25]
  Plant response rating, Pigweed: 0
[12]; [26]
  Plant response rating, Pigweed: 0
[13]; [25]
  Plant response rating, Ragweed: 0
[13]; [26]
  Plant response rating, Ragweed: 20
[14]; [25]
  Plant response rating, Ryegrass, Italian: 0
[14]; [26]
  Plant response rating, Ryegrass, Italian: 0
[15]; [25]
  Plant response rating, Wheat: 0
[15]; [26]
  Plant response rating, Wheat: 0
[16]; 13 to 15 d
  Plant response rating, Barnyardgrass: 0
[17]; 13 to 15 d
  Plant response rating, Ducksalad: 65
Rice (Oryra sativa); 13 to 15 d
  Plant response rating, Rice: 0
[18]; 13 to 15 d
  Plant response rating, Sedge, Umbrella: 0
